Reference: patent US11286263B2, “Macrocyclic fluorine substituted indole derivatives” (The Broad Institute, Inc., priority 2017, dated 2022)
Several values for one entry are separate records, joined by “and”; a condition that tells them apart may be missing. Equal values may be shown once. Where a name gives a salt, the structure may show the parent alone. Read-outs that look alike come from different tables or passages of the source.

Legend:
SUDHL5 [1] = assay: Antiproliferation assay SUDHL5 (Assay 7); assay type: cell-based
Method: (§1) Assessment of the Anti-Proliferative Effect of Compounds in Different Cell Lines
(§2) The impact of compounds on the proliferation of different cell lines was assessed using the CellTiter-Glo® Luminescent Cell Viability reagent from Promega (G7573).
(§3) In parallel, cells were plated in a reference (day 0) plate for time zero determination.
(§4) Rim wells were excluded. The cells were incubated for 72 h hours in a humidified incubator at 37° C. The day 0 plate was measured by adding 30 μL/well of CTG solution (CellTiter-Glo® Luminescent Cell Viability reagent, Promega G7573) to time zero wells in the reference plate followed by a 10 minutes incubation and luminescence reading at 0.1 ms. using the PHERAstar FS microplate reader (BMG Labtech).
(§5) After 72 h incubation, the treated plates were measured in the same way as the day 0 plate mentioned above.

MCL-1 = MCL-1 (Homo sapiens (Human), UniProt Q07820, K194A/K197A/R201A); assay: Protein-protein interaction assay MCL-1/Noxa BH3 peptide (MCL-1 assay), TR-FRET; assay type: binding; conditions: MCL-1/Noxa BH3 peptide TR-FRET; median
Chain of MCL-1 (Q07820 whole entry K194A/K197A/R201A, looked up): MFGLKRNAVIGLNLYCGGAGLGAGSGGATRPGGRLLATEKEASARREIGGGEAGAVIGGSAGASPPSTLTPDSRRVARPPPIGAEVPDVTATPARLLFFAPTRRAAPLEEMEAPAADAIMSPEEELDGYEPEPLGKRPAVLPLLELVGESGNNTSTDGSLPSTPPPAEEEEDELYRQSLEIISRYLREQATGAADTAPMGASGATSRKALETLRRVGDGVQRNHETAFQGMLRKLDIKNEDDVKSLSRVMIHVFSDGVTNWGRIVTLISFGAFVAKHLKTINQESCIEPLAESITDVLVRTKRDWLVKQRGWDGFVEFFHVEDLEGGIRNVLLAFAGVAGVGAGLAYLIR
Method: Protein-Protein Interaction Assay: MCL-1/Noxa BH3 Peptide (MCL-1 Assay)
The dose-dependent inhibition by the compounds described in this invention of the interaction between MCL-1 and the BH3 domain of Noxa (both human) was determined using a steady state binding competition assay with time-resolved fluorescence energy transfer (TR-FRET) readout. For that purpose MCL-1 (amino acids 173-321, N-terminal fused to Maltose Binding Protein (MBP) SEQ ID 1)) and a synthetic Noxa BH3-derived peptide of sequence Biotin-PEG2-PEG2-PAELEVE-Nva-ATQLRRFGDKLNFRQKLL-amide (SEQ ID 2) served as protein receptor and tracer ligand respectively. The MBP-MCL-1 was purchased from Beryllium (Bedford, Mass., USA). The expression and purification of this protein construct has been described elsewhere (DOI:10.1371/journal.pone.0125010). The Noxa BH3-derived peptide can be obtained from e.g. Biosyntan (Berlin, Germany).
In the assay 11 different concentrations of each compound (0.1 nM, 0.33 nM, 1.1 nM, 3.8 nM, 13 nM, 44 nM, 0.15 μM, 0.51 μM, 1.7 μM, 5.9 μM and 20 μM) were typically measured as duplicates in the same microtiter plate. For that, 100-fold concentrated DMSO solutions were prepared by serial dilutions (1:3.4) of a 2 mM stock solution in a clear, 384-well microtiter plate (Greiner Bio-One, Frickenhausen, Germany). From there, 50 nl were transferred in a dark test plate (Greiner Bio-One, Frickenhausen, Germany). The assay was initiated by addition of 2 μl of a 2,5-fold concentrated MBP-MCL-1 solution (usually for a 1 nM end concentration in 5 μl reaction volume) in aqueous assay buffer [50 mM Tris/HCl pH 7, 100 mM sodium chloride (NaCl), 50 mM potassium fluoride (KF), 0.005% Tween-20, 2 mM DTT, 0.1% bovine gamma globulin (BGG)] to the compounds in the assay plate. This was followed by a 10-minute incubation step at 22° C. for pre-equilibration of the putative complex between MBP-MCL-1 and the compounds. After that, 3 μl of a 1.67-fold concentrated solution (in assay buffer) consisting of Noxa BH3-derived peptide (1 nM end concentration) and TR-FRET detection reagents [1.67 nM anti-MBP-Eu cryptate and 1.67 nM streptavidin-XL665 (both from Cisbio Bioassays, Codolet, France)], were added.
The mixture was incubated in the dark for one hour at 22° C. and then overnight at 4° C. The formation of MCL-1/Noxa complexes was determined by measuring the resonance energy transfer of the anti-MBP-Eu-cryptate antibody to the streptavidin-XL665 present in the reaction. For that purpose, the fluorescence emission at 620 nm and 665 nm after excitation at 330-350 nm was measured in a TR-FRET measuring instrument, for instance a Rubystar or a Pherastar (both from BMG Lab Technologies, Offenburg, Germany) or a Viewlux (Perkin-Elmer). The ratio of the emission at 665 nm and at 622 nm was used as indicator of the amount of MCL-1/NOXA complexes present.
The resulting data (ratio) were normalized, taking 0% inhibition as the mean value of control measurements (usually 32 data points) where all reagents were included. In this case 50 nl DMSO were used instead of compounds. A 100% inhibition corresponded to the mean value of control measurements (usually 32 data points) where all reagents except MCL-1 were included. IC50 values were determined by regression analysis based on a 4 parameter equation (minimum, maximum, IC50, Hill; Y=Max+(Min−Max)/(1+(X/IC50)^Hill) using the Screener Software (Genedata).

A2780 = assay: Antiproliferation assay A2780 (Assay 7); assay type: cell-based; conditions: A2780 cells, CellTiter-Glo, single determinations, read-out: IC50 Antiproli A2780
Method: as §1, §2, §3, §4, §5

AMO-1 = assay: Antiproliferation assay AMO-1 (Assay 7); assay type: cell-based; conditions: AMO-1 cells, CellTiter-Glo, single determinations, read-out: IC50 Antiproli AMO-1
Method: as §1, §2, §3, §4, §5

SUDHL10 [2] = assay: Induction of caspase-3/7 activity, SUDHL10 (Assay 4); assay type: cell-based
Method: (§6) Induction of Caspase-3/7 Activity upon Treatment of Cells with Selected Compounds
(§7) The BH3-domain of MCL-1 sequesters pro-apoptotic proteins, thereby inhibiting apoptosis. In contrast, MCL-1 inhibitors are expected to antagonize this effect leading to an increase in apoptosis, which can be determined by measuring the activity of caspase-3/7.
(§8) The activity of caspase-3/7 was determined in DLBCL (Diffuse large B-cell lymphoma) cell lines (SUDHL5 and SUDHL10) upon treatment with different compounds, using the Caspase-Glo® 3/7 reagent from Promega (G8092).
(§9) Rim wells were excluded. The cells were incubated for 3 h hours in a humidified incubator at 37° C.
(§10) For the evaluation of the results, the background measured with “medium-only” was subtracted from all other values. […] The Bella DRC Master Sheet was used to calculate EC50s, with fixed C0=1 and Cl=plateau/max induction for the reference compound.

SUDHL5 [3] = assay: Induction of cytotoxicity, SUDHL5 (Assay 6); conditions: read-out: IC50 Cytotox SUDHL5 [M] (median), SUDHL5 cells, 5 h, CellTiter-Glo
SUDHL10 [4] = assay: Induction of cytotoxicity, SUDHL10 (Assay 6); conditions: read-out: IC50 Cytotox SUDHL10 [M] (median), SUDHL10 cells, 5 h, CellTiter-Glo
MV-4-11 = assay: Antiproliferation assay MV-4-11 (Assay 7); assay type: cell-based; conditions: MV-4-11 cells, CellTiter-Glo, single determinations, read-out: IC50 Antiproli MV-4-11
Method: as §1, §2, §3, §4, §5

SUDHL5 [5] = assay: Induction of caspase-3/7 activity, SUDHL5 (Assay 4); assay type: cell-based
Method: as §6, §7, §8, §9, §10

[6] = SUDHL5 cells, 72 h, CellTiter-Glo; median; read-out: IC50 Antiproli SUDHL5 [M] (median)
[7] = SUDHL10 cells, 3 h, Caspase-Glo 3/7; median
[8] = SUDHL5 cells, 3 h, Caspase-Glo 3/7; median
[9] = 72 h, trifluoroacetic acid salt

Row | SMILES | IC50 (SUDHL5 [1]; [6]) [M] | IC50 (MCL-1) [µM] | IC50 (A2780; 72 h) [µM] | IC50 (AMO-1; 72 h) | EC50 (SUDHL10 [2]; [7]) [µM] | IC50 (SUDHL5 [3]) [M] | IC50 (SUDHL10 [4]) [M] | IC50 (MV-4-11; 72 h) | EC50 (SUDHL5 [5]; [8]) [µM] | IC50 (A2780; Homo sapiens, A2780, 72 h) [µM] | IC50 (SUDHL5 [3]; Homo sapiens, SU-DHL-5, 5 h) [M] | IC50 (SUDHL10 [4]; Homo sapiens, SU-DHL10, 5 h) [M] | also measured
1 | Cc1c2c(nn1C)CNCCCCn1c(C(=O)O)c(CCCOc3cccc4ccccc34)c3ccc(F)c-2c31 (single isomer, unassigned; enantiomer 2) [Example 49, 4-fluoro-2,3-dimethyl-7-{3-[(naphthalen-1-yl)oxy]propyl}-10,11,12,13,14,15-hexahydro-2H-pyrazolo[3′,4′:8,9][1,6]diazacycloundecino[10,11,1-hi]indole-8-carboxylic acid (enantiomer 2)] | 1e-05 | 0.04 | 15.1 | > 33 µM | > 33 | > 2.7e-05 | > 3.3e-05 | 18.9 µM and 23.3 µM | > 33 | – | – | – | –
2 | CCc1nn(C)c2c1-c1c(F)ccc3c(CCCOc4cccc5cc(F)ccc45)c(C(=O)O)n(c13)CCCCOC2 (single isomer, unassigned; enantiomer 2) [Example 40, 3-ethyl-4-fluoro-7-{3-[(6-fluoronaphthalen-1-yl)oxy]propyl}-1-methyl-1,10,11,12,13,15-hexahydropyrazolo[4′,3′:9,10][1,6]oxazacycloundecino[8,7,6-hi]indole-8-carboxylic acid-N-ethylethanamine salt (enantiomer 2)] | 1.4e-05 | 0.04 | 29.6 | > 33 µM | > 33 | 2.3e-05 | > 2.5e-05 | 14.3 µM and 11.6 µM | 21 | – | – | – | –
3 | CCc1c2c(nn1C)COCCCCn1c(C(=O)O)c(CCCOc3cccc4ccccc34)c3ccc(F)c-2c31 (single isomer, unassigned; enantiomer 2) [Example 8, 3-ethyl-4-fluoro-2-methyl-7-{3-[(naphthalen-1-yl)oxy]propyl}-2,10,11,12,13,15-hexahydro-pyrazolo[4′,3′:9,10][1,6]oxazacycloundecino[8,7,6-hi]indole-8-carboxylic acid-N-ethylethanamine salt (enantiomer 2)] | 1.5e-05 | 0.026 | – | – | > 33 | 2.7e-05 | > 3.3e-05 | – | 30 | – | – | – | IC50 (A2780; 72 h, listed as 08): 20 µM; IC50 (MV-4-11; 72 h, listed as 08): 21.3 µM
4 | Cc1c2c(nn1C)COCCCCn1c(C(=O)O)c(CCCOc3cccc4cc(F)ccc34)c3ccc(F)c-2c31 (single isomer, unassigned; enantiomer 2) [Example 14, 4-fluoro-7-{3-[(6-fluoronaphthalen-1-yl)oxy]propyl}-2,3-dimethyl-2,10,11,12,13,15-hexahydro-pyrazolo[4′,3′:9,10][1,6]oxazacycloundecino[8,7,6-hi]indole-8-carboxylic acid-N-ethylethanamine salt (enantiomer 2)] | 4e-06 | 0.017 | 19.8 | 7.54 µM and 11.6 µM | 14 | 6e-06 | 1.2e-05 | – | 5.4 | – | – | – | –
5 | CCc1c2c(nn1C)COCCCCn1c(C(=O)O)c(CCCOc3ccc(F)c4ccccc34)c3ccc(F)c-2c31 (racemic) [Example 26, (rac)-12-ethyl-13-fluoro-1-(3-((4-fluoronaphthalen-1-yl)oxy)propyl)-11-methyl-4,5,6,7,9,11-hexahydropyrazolo[4′,3′:9,10][1]oxa[6]azacycloundecino[8,7,6-hi]indole-2-carboxylic acid] | – | 0.0014 | – | – | – | – | – | – | – | 10.2 | 1.8e-06 | 3.7e-06 | IC50 (SUDHL5 [1]; Homo sapiens, SU-DHL-5, 72 h, SUDHL5 cells, CellTiter-Glo, median, read-out: IC50 Antiproli SUDHL5 [M] (median)): 2.2e-06 M; IC50 (AMO-1; Homo sapiens, AMO1, 72 h): 4.31 µM; EC50 (SUDHL10 [2]; Homo sapiens, SU-DHL10, 3 h, SUDHL10 cells, Caspase-Glo 3/7, median): 3.3 µM; EC50 (SUDHL5 [5]; Homo sapiens, SU-DHL-5, 3 h, SUDHL5 cells, Caspase-Glo 3/7, median): 1.5 µM
6 | Cc1c2c(nn1C)CNCCCCn1c(C(=O)O)c(CCCOc3cccc4ccccc34)c3ccc(F)c-2c31 (racemic) [Example 47, (rac)-4-fluoro-2,3-dimethyl-7-[3-(1-naphthyloxy)propyl]-10,11,12,13,14,15-hexahydro-2H-pyrazolo[3′,4′:8,9][1,6]diazacycloundecino[10,11,1-hi]indole-8-carboxylic acid trifluoroacetic acid salt] | – | 0.00082 | – | – | – | – | – | – | – | 20.9 | 2.2e-06 | 5.6e-06 | IC50 (SUDHL5 [1]; Homo sapiens, SU-DHL-5; SUDHL5 cells, 72 h, CellTiter-Glo; median; read-out: IC50 Antiproli SUDHL5 [M] (median)): 2.1e-06 M; IC50 (A2780; [9]): 18.9 µM; EC50 (SUDHL10 [2]; Homo sapiens, SU-DHL10; SUDHL10 cells, 3 h, Caspase-Glo 3/7; median): 5 µM; IC50 (MV-4-11; Homo sapiens, MV4-11, 72 h): 1.02 µM; IC50 (MV-4-11; [9]): 1.32 µM; EC50 (SUDHL5 [5]; Homo sapiens, SU-DHL-5; SUDHL5 cells, 3 h, Caspase-Glo 3/7; median): 1.4 µM
